Experimental data published in patent US20100196874A1, “METHOD OF DRUG DESIGN” (priority 2006, published 2010).
Like-named read-outs stand apart in the source and are kept apart here.

Experiments:
CVB3 [1] = settings: for IC50: read-out: IC5, HeLa cell culture with CVB3; for antiviral effect against CVB3 relative to cytotoxic effect: % virus yield versus % cell metabolism, HeLa cells, FIG. 1; for order of antiviral potency: CVB3, same order as against HRV2
Source text: (§1) The toxicity of the compounds (CC50, being the concentration causing 50% reduction in cell metabolism as measured by Alamar Blue assay) reflects the relative activity of each compound against cellular ion channels, while the antiviral activity (IC50) reflects the relative activity of each compound against the RdRP of CVB3.

[2] = test system: amiloride-resistant and guanidine-resistant CVB3 clones; experiment: Cross-resistance of amiloride-resistant and guanidine-resistant virus clones; type: cell-based, Coxsackievirus B3
CVB3 [3] = experiment: Viral RNA synthesis, 3H-uridine pulse label; type: cell-based, Coxsackievirus B3; settings: treated between four and five hours post infection, compared to untreated cells
Method: A standard method to determine which of the two processes is inhibited directly is to add the inhibitor and pulse-label viral RNA and proteins at the time in the replication cycle when sufficient amounts of RNA and proteins have been produced to allow continuation of one process independent of the other.
In a further set of experiments, the effect of the drugs on viral protein synthesis (see FIG. 5) and viral RNA synthesis (see FIG. 6) was determined. Cells were infected as described in Examples 2 and 3, and drugs were added to cells at four hours post infection. Radioactive labels (35S-methionine for proteins, 3H-uridine for RNA) were added to cells from 4.5-5 h post infection. Treatment with GHCl, which inhibits enteroviral RNA replication but not protein synthesis was used as a control.

CVB3 [4] = experiment: Release of virus from CVB3-infected cells; type: cell-based, Coxsackievirus B3; settings: compared to untreated controls, FIG. 3
[5] = test system: CVB3 mutants S299T, A372V, D48G; experiment: Drug sensitivity of CVB3 carrying single introduced mutations; type: cell-based, Coxsackievirus B3; settings: for effect of D48G mutation on virus sensitivity: 2A protein mutation by itself; for sensitivity of viruses containing S299T or A372V mutations: 3D protein mutations, FIG. 11
HRV2 = settings: cited from earlier work
CVB3 [6] = experiment: Time of addition of drugs to CVB3-infected cultures, total virus yield; type: cell-based, Coxsackievirus B3; settings: 400 μM amiloride or 25 μM EIPA, added up to 2 hours post-infection, yield at 10 hours
Method: Cultures were incubated until 10 hours post-infection, then the total virus yield (released virus+intracellular virus) was quantitated (FIG. 2A). Kinetics of virus production was measured in parallel (FIG. 2B). […] This contrasts with well-known antiviral drugs active against picornaviruses such as Pleconaril, which prevent uncoating and/or binding to the cell.

CVB3 [7] = experiment: Viral assembly: viral RNA (3H-uridine) versus virus produced; type: cell-based, Coxsackievirus B3; settings: 3H-uridine labelling; 25 micromolar EIPA (compared with 500 micromolar guanidine), 400 micromolar amiloride
Method: In a further set of experiments, the effect of the drugs on viral assembly was determined. […] Guanidine is well known to inhibit the initiation of viral RNA replication through its effect on the viral 2C protein, but has no effect on the assembly of virus from RNA that is replicated in its presence. Infected cells were incubated with 3H-uridine to label viral RNA, and RNA was detected by electrophoresis and autoradiography.

CVB3 [8] = experiment: Reversibility: compounds removed at various times post-infection, CVB3 yield at 10 hours; type: cell-based, Coxsackievirus B3; settings: compounds removed at 1, 2 or 4 hours post-infection, HeLa cells
Method: Virus replication was then allowed to continue until 10 hours post-infection.

[9] = concentration causing 50% reduction in cell metabolism, Alamar Blue assay, HeLa

Source text for HeLa cells: as §1

N=C(NCc1ccc(Cl)cc1Cl)NC(=O)c1nc(Cl)c(N)nc1N [2,4-DCB]
CC5 (HeLa cells; [9]): 14 µM
IC50 (CVB3 [1]): 5 µM

N/C(=N\C(=O)c1nc(Cl)c(N)nc1N)NCc1ccccc1 [Benzamil]
CC5 (HeLa cells; [9]): 100 µM
antiviral effect against CVB3 relative to cytotoxic effect (CVB3 [1]): selective antiviral effect
order of antiviral potency (CVB3 [1]): EIPA>benzamil>amiloride
IC50 (CVB3 [1]): 10 µM

NC(N)=NC(=O)c1nc(Cl)c(N2CCCCCC2)nc1N [HMA, 5-(N,N-hexamethylene)amiloride]
CC5 (HeLa cells): 25 µM
antiviral effect against CVB3 relative to cytotoxic effect (CVB3 [1]): selective antiviral effect
IC50 (CVB3 [1]): 2 µM

CHPG
CC5 (HeLa cells; [9]): 15 µM
IC50 (CVB3 [1]): 2 µM

Cl.N=C(N)N [guanidine, guanidine hydrochloride]
sensitivity of amiloride-resistant virus clones to antiviral effect ([2]; six clones of amiloride-resistant virus): remained sensitive

CC(C)CN(C)c1nc(N)c(C(=O)N=C(N)N)nc1Cl [MIBA]
CC5 (HeLa cells; [9]): 25 µM
IC50 (CVB3 [1]): 2 µM

NC(N)=NC(=O)c1nc(Cl)c(N)nc1N [Amiloride, 3,5-diamino-6-chloro-N-(diaminomethylidene) pyrazine-2-carboxamide]
amount of viral RNA synthesis (CVB3 [3]): dramatically reduced
sensitivity of guanidine-resistant virus clones to antiviral effect ([2]; six clones of guanidine-resistant virus): remained sensitive
proportion of extracellular virus (CVB3 [4]): slight increase
effect of D48G mutation on virus sensitivity [5]: no significant effect
sensitivity of viruses containing S299T or A372V mutations [5]: reduced sensitivity
effect upon HRV2 RNA replication (HRV2): no effect
CC5 (HeLa cells): >1000 µM
reduction of virus replication by time of addition (CVB3 [6]): fully effective
amount of viral RNA produced (CVB3 [7]): greatly reduced
order of antiviral potency (CVB3 [1]): EIPA>benzamil>amiloride
IC50 (CVB3 [1]): 50 µM
CVB3 production at 10 hours post-infection after removal of compound (CVB3 [8]): equivalent to that of the untreated cultures

N/C(=N\C(=O)c1nc(Cl)c(N)nc1N)NCc1ccc(Cl)c(Cl)c1 [3,4-DCB]
CC5 (HeLa cells; [9]): 14 µM
IC50 (CVB3 [1]): 5 µM

CNC(N)=NC(=O)c1cc(Cl)ccc1O [CHMG]
CC5 (HeLa cells; [9]): 155 µM
IC50 (CVB3 [1]): 9 µM

CCN(c1nc(N)c(C(=O)N=C(N)N)nc1Cl)C(C)C [EIPA, 5-(N-ethyl-N-isopropyl)amiloride]
amount of viral RNA synthesis (CVB3 [3]): dramatically reduced
proportion of extracellular virus (CVB3 [4]): slight increase
effect of D48G mutation on virus sensitivity [5]: no significant effect
sensitivity of viruses containing S299T or A372V mutations [5]: reduced sensitivity
effect upon HRV2 RNA replication (HRV2): no effect
effect on HRV2 release (HRV2; previous data): inhibitory effect
CC5 (HeLa cells; [9]): 25 µM
reduction of virus replication by time of addition (CVB3 [6]): fully effective
amount of viral RNA produced (CVB3 [7]): equivalent amounts of viral RNA
antiviral effect against CVB3 relative to cytotoxic effect (CVB3 [1]): selective antiviral effect
order of antiviral potency (CVB3 [1]): EIPA>benzamil>amiloride
IC50 (CVB3 [1]): 2 µM
CVB3 production at 10 hours post-infection after removal of compound (CVB3 [8]): equivalent to that of the untreated cultures

CN(C)c1nc(N)c(C(=O)N=C(N)N)nc1Cl [DMA]
CC5 (HeLa cells; [9]): 190 µM
IC50 (CVB3 [1]): 90 µM
